System: 128128-338-R-J1-PDC spheroids, viability % test/control
Test: Anticancer human tumor 128128-338-R-J1-PDC patient-derived melanoma cell line growth inhibition [TAK]
Settings: spheroids with HUVEC and MSC; for IC50: curve of first compound; for viability, T/C: stronger effect = lower value
In short: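 Spheroids of 60% malignant cells, 25% HUVEC and 15% hMSC were exposed to targeted agents combined with TAK-243 or ipatasertib. Concentrations started at or near clinical Cmax (10 microM if unknown) and descended in half-log steps.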

[1] = second compound 0.3 µM, first compound 0.0316 µM
[2] = second compound 0.3 µM, first compound 0.1 µM
[3] = second compound 0.3 µM, first compound 0.316 µM
[4] = second compound 0.3 µM, first compound 1 µM
[5] = second compound 0.949 µM, first compound 0.0316 µM
[6] = second compound 0.949 µM, first compound 0.1 µM
[7] = second compound 0.949 µM, first compound 0.316 µM
[8] = second compound 0.949 µM, first compound 1 µM
[9] = second compound 3 µM, first compound 0.0316 µM
[10] = second compound 3 µM, first compound 0.1 µM
[11] = second compound 3 µM, first compound 0.316 µM
[12] = second compound 3 µM, first compound 1 µM
[13] = second compound 9.49 µM, first compound 0.0316 µM
[14] = second compound 9.49 µM, first compound 0.1 µM
[15] = second compound 9.49 µM, first compound 0.316 µM
[16] = second compound 9.49 µM, first compound 1 µM
[17] = second compound 30 µM, first compound 0.0316 µM
[18] = second compound 30 µM, first compound 0.1 µM
[19] = second compound 30 µM, first compound 0.316 µM
[20] = second compound 30 µM, first compound 1 µM
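Throughout, for viability, T/C: 100% = DMSO vehicle wells.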

## COc1c(OCCCN2CCOCC2)ccc2c3n(c(=NC(=O)c4cnc(N)nc4)nc12)CCN3 + CC(C)NCC(C(=O)N1CCN(c2ncnc3c2C(C)CC3O)CC1)c1ccc(Cl)cc1
Second compound 0.3 µM
  IC50: 160 nM
Second compound 0.949 µM
  IC50: 154 nM
Second compound 3 µM
  IC50: 92.5 nM
Second compound 9.49 µM
  IC50: 47.6 nM
Second compound 30 µM
  IC50: < 3.16 nM
Second compound 0.3 µM, first compound 0.00316 µM
  viability, T/C: 99.3%
Second compound 0.3 µM, first compound 0.01 µM
  viability, T/C: 103%
[1]
  viability, T/C: 85.7%
[2]
  viability, T/C: 71.9%
[3]
  viability, T/C: 19.8%
[4]
  viability, T/C: 10.2%
Second compound 0.949 µM, first compound 0.00316 µM
  viability, T/C: 93.4%
Second compound 0.949 µM, first compound 0.01 µM
  viability, T/C: 107%
[5]
  viability, T/C: 90.3%
[6]
  viability, T/C: 68.8%
[7]
  viability, T/C: 19.5%
[8]
  viability, T/C: 6.65%
Second compound 3 µM, first compound 0.00316 µM
  viability, T/C: 90.8%
Second compound 3 µM, first compound 0.01 µM
  viability, T/C: 88.3%
[9]
  viability, T/C: 77.7%
[10]
  viability, T/C: 47.3%
[11]
  viability, T/C: 19.3%
[12]
  viability, T/C: 6.49%
Second compound 9.49 µM, first compound 0.00316 µM
  viability, T/C: 62%
Second compound 9.49 µM, first compound 0.01 µM
  viability, T/C: 74.2%
[13]
  viability, T/C: 57.5%
[14]
  viability, T/C: 33.3%
[15]
  viability, T/C: 11.9%
[16]
  viability, T/C: 8.21%
Second compound 30 µM, first compound 0.00316 µM
  viability, T/C: 19.5%
Second compound 30 µM, first compound 0.01 µM
  viability, T/C: 19.5%
[17]
  viability, T/C: 13.6%
[18]
  viability, T/C: 8.31%
[19]
  viability, T/C: 1.28%
[20]
  viability, T/C: 0.56%

## Cc1nc(NC(=O)N2CCCC2C(N)=O)sc1-c1ccnc(C(C)(C)C(F)(F)F)c1 (stereo not given) + CC(C)NCC(C(=O)N1CCN(c2ncnc3c2C(C)CC3O)CC1)c1ccc(Cl)cc1
Second compound 0.3 µM
  IC50: > 10000 nM
Second compound 0.949 µM
  IC50: > 10000 nM
Second compound 3 µM
  IC50: > 10000 nM
Second compound 9.49 µM
  IC50: 3460 nM
Second compound 30 µM
  IC50: < 31.6 nM
[1]
  viability, T/C: 102%
[2]
  viability, T/C: 105%
[3]
  viability, T/C: 102%
[4]
  viability, T/C: 105%
Second compound 0.3 µM, first compound 3.16 µM
  viability, T/C: 105%
Second compound 0.3 µM, first compound 10 µM
  viability, T/C: 73.2%
[5]
  viability, T/C: 89%
[6]
  viability, T/C: 103%
[7]
  viability, T/C: 100%
[8]
  viability, T/C: 91.7%
Second compound 0.949 µM, first compound 3.16 µM
  viability, T/C: 82.7%
Second compound 0.949 µM, first compound 10 µM
  viability, T/C: 81.8%
[9]
  viability, T/C: 95.8%
[10]
  viability, T/C: 88.8%
[11]
  viability, T/C: 90.7%
[12]
  viability, T/C: 84.7%
Second compound 3 µM, first compound 3.16 µM
  viability, T/C: 80%
Second compound 3 µM, first compound 10 µM
  viability, T/C: 54.5%
[13]
  viability, T/C: 69.5%
[14]
  viability, T/C: 70.2%
[15]
  viability, T/C: 68.5%
[16]
  viability, T/C: 64.8%
Second compound 9.49 µM, first compound 3.16 µM
  viability, T/C: 51.8%
Second compound 9.49 µM, first compound 10 µM
  viability, T/C: 23.7%
[17]
  viability, T/C: 24.1%
[18]
  viability, T/C: 21.2%
[19]
  viability, T/C: 22.1%
[20]
  viability, T/C: 16.6%
Second compound 30 µM, first compound 3.16 µM
  viability, T/C: 15%
Second compound 30 µM, first compound 10 µM
  viability, T/C: 3.6%

Reference: PubChem BioAssay AID2060362 (Molecular Pharmacology Branch, DTP, NCI, 2025)
